Literature values in patent publication US20040166069A1, “Boosting Tyrosinase Inhibiting Activity of Skin Whitening and Sunscreen Compositions” (priority 2003, published 2004).

Tested on: de-pigmentation
Conditions: relative to hydroquinone

Row | Structure (SMILES) | quantity required compared to the quantity of hydroquinone used to achieve a similar effect
1 | O=C1O[C@H]([C@@H](O)CO)C(O)=C1O [ascorbic acid] | 17 times
2 | OC[C@H]1O[C@@H](Oc2ccc(O)cc2)[C@H](O)[C@@H](O)[C@@H]1O [arbutin] | over 100 times
